Reference: patent US20230295234A1, “ANTIMICROBIAL PEPTIDOMIMETICS” (SPEXIS AG, priority 2020, published 2023)
Bridge positions count the residues as written; N and C are the ends. Square brackets hold non-standard residues; d marks the D form. Peptide text beside a SMILES is read from it. * marks the point of attachment. Pro(4R-NH2) = N[C@H]1CN[C@H](C(=O)O)C1; Gly(N-2-aminoethyl) = NCCNCC(=O)O; Hyp = O=C(O)[C@@H]1C[C@@H](O)CN1; Gly(N(CH2)3NH2) = NCCCNCC(=O)O; Pen = CC(C)(S)[C@H](N)C(=O)O; dDab = NCC[C@@H](N)C(=O)O; Nle = CCCC[C@H](N)C(=O)O; Dab = NCC[C@H](N)C(=O)O; X3 = NCCN(CCN)CC(=O)*; Nlys = NCCCCNCC(=O)O

Assays:
[1] = system: Escherichia coli ATCC 25922; settings: ATCC 25922
Procedure, shortened: (§1)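 Standardized inocula (0.5 McFarland in saline, then diluted in MHII broth to approximately 5×10^5 CFU/mL) were exposed to two-fold dilution series of each peptide in the presence of polysorbate 80 (0.002% final).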

[2] = system: Escherichia coli MCR-1 Af 45; settings: MCR-1 Af 45
Procedure, shortened: as §1

[3] = system: Klebsiella pneumoniae SSI3010; settings: SSI3010
Procedure, shortened: as §1

[4] = system: human red blood cells (hRBC); experiment: Hemolysis of human red blood cells; type: cell-based; settings: red cells of human, 1 h
Procedure, shortened: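 Percent hemolysis is OD540 of peptide-treated supernatant relative to water-lysed cells. Each peptide was tested at 200 μg/mL against 20% (v/v) washed human erythrocytes. Incubation was 1 h at 37 °C, 300 rpm.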

| Escherichia coli ATCC 25922 MIC [1] [mg/L] | Escherichia coli MCR-1 Af 45 MIC [2] [mg/L] | Klebsiella pneumoniae SSI3010 MIC [3] [mg/L] | SMILES | Hemolysis at 0.2 g/L [4] [%] |
| --- | --- | --- | --- | --- |
| 0.125 | 0.125 | 0.25 | CC[C@H](C)[C@H](NC(=O)[C@@H]1C[C@@H](O)CN1C(=O)[C@@H](NC(=O)[C@@H]1C[C@@H](O)CN1C(=O)CNCCCN)C(C)C)C(=O)N[C@H](C(=O)N[C@@H](Cc1ccc(O)cc1)C(=O)N[C@@H]1C(=O)N[C@@H](CC(N)=O)C(=O)N[C@@H](CCCNC(=N)N)C(=O)N[C@@H](CCN)C(=O)N[C@@H]([C@@H](C)O)C(=O)N[C@H](CCN)C(=O)N[C@@H](CCCCN)C(=O)N[C@H](C(=O)N[C@@H](CCN)C(=O)N[C@@H](CCCNC(=N)N)C(=O)N[C@@H](Cc2ccc(O)cc2)C(=O)O)CSSC1(C)C)[C@@H](C)O [Example 42, Norn-Hyp-Val-Hyp-Ile-Thr-Tyr-Pen-Asn-Arg-Dab-Thr-^DDab-Lys-Cys-Dab-Arg-Tyr] (HELM PEPTIDE1{[NCCCNCC(=O)[*:2]].[Hyp].V.[Hyp].I.T.Y.[Pen].N.R.[Dab].T.[NCC[C@@H](N[*:1])C(=O)[*:2]].K.C.[Dab].R.Y}$PEPTIDE1,PEPTIDE1,8:R3-15:R3$$$V2.0) | 0 |
| 0.25 | 0.125 | 0.25 | CC[C@H](C)[C@H](NC(=O)[C@@H]1C[C@@H](N)CN1C(=O)[C@@H](NC(=O)[C@@H]1C[C@@H](O)CN1C(=O)CNCCN)C(C)C)C(=O)N[C@H](C(=O)N[C@@H](Cc1ccc(O)cc1)C(=O)N[C@@H]1C(=O)N[C@@H](CC(N)=O)C(=O)N[C@@H](CCCNC(=N)N)C(=O)N[C@@H](CCN)C(=O)N[C@@H]([C@@H](C)O)C(=O)N[C@H](CCN)C(=O)N[C@@H](CCCCN)C(=O)N[C@H](C(=O)N[C@@H](CCN)C(=O)N[C@@H](CCCNC(=N)N)C(=O)N[C@@H](Cc2ccc(O)cc2)C(=O)O)CSSC1(C)C)[C@@H](C)O [Example 44, Ndab-Hyp-Val-Pro((4R)NH2)-Ile-Thr-Tyr-Pen-Asn-Arg-Dab-Thr-^DDab-Lys-Cys-Dab-Arg-Tyr] (H-[Gly(N-2-aminoethyl)][Hyp]V[Pro(4R-NH2)]ITY[Pen]NR[Dab]T[dDab]KC[Dab]RY-OH; disulfide 8-15) | 0 |
| 0.0625 | 0.0625 | 0.125 | CC[C@H](C)[C@H](NC(=O)[C@@H]1C[C@@H](N)CN1C(=O)[C@@H](NC(=O)[C@@H]1C[C@@H](O)CN1C(=O)CNCCCN)C(C)C)C(=O)N[C@H](C(=O)N[C@@H](Cc1ccc(O)cc1)C(=O)N[C@@H]1C(=O)N[C@@H](CC(N)=O)C(=O)N[C@@H](CCCNC(=N)N)C(=O)N[C@@H](CCN)C(=O)N[C@@H]([C@@H](C)O)C(=O)N[C@H](CCN)C(=O)N[C@@H](CCCCN)C(=O)N[C@H](C(=O)N[C@@H](CCN)C(=O)N[C@@H](CCCNC(=N)N)C(=O)N[C@@H](Cc2ccc(O)cc2)C(=O)O)CSSC1(C)C)[C@@H](C)O [Example 45, Norn-Hyp-Val-Pro((4R)NH2)-Ile-Thr-Tyr-Pen-Asn-Arg-Dab-Thr-^DDab-Lys-Cys-Dab-Arg-Tyr] (H-[Gly(N(CH2)3NH2)][Hyp]V[Pro(4R-NH2)]ITY[Pen]NR[Dab]T[dDab]KC[Dab]RY-OH; disulfide 8-15) | 0 |
| ≤0.03125 | ≤0.03125 | 0.125 | CC[C@H](C)[C@H](NC(=O)[C@@H]1C[C@@H](N)CN1C(=O)[C@@H](NC(=O)[C@@H]1C[C@@H](O)CN1C(=O)CNCCCCN)C(C)C)C(=O)N[C@H](C(=O)N[C@@H](Cc1ccc(O)cc1)C(=O)N[C@@H]1C(=O)N[C@@H](CC(N)=O)C(=O)N[C@@H](CCCNC(=N)N)C(=O)N[C@@H](CCN)C(=O)N[C@@H]([C@@H](C)O)C(=O)N[C@H](CCN)C(=O)N[C@@H](CCCCN)C(=O)N[C@H](C(=O)N[C@@H](CCN)C(=O)N[C@@H](CCCNC(=N)N)C(=O)N[C@@H](Cc2ccc(O)cc2)C(=O)O)CSSC1(C)C)[C@@H](C)O [Example 46, Nlys-Hyp-Val-Pro((4R)NH2)-Ile-Thr-Tyr-Pen-Asn-Arg-Dab-Thr-^DDab-Lys-Cys-Dab-Arg-Tyr] (H-[Nlys][Hyp]V[Pro(4R-NH2)]ITY[Pen]NR[Dab]T[dDab]KC[Dab]RY-OH; disulfide 8-15) | 0 |

Further lines, the compound ahead of its results:

| SMILES | Escherichia coli ATCC 25922 MIC [1] [mg/L] | Escherichia coli MCR-1 Af 45 MIC [2] [mg/L] | Klebsiella pneumoniae SSI3010 MIC [3] [mg/L] | Hemolysis at 0.2 g/L [4] [%] |
| --- | --- | --- | --- | --- |
| CCCC[C@H](NC(=O)[C@H](CCCNC(=N)N)NC(=O)[C@H](CCC(N)=O)NC(=O)[C@@H]1CSSC(C)(C)[C@H](NC(=O)[C@H](Cc2ccc(O)cc2)NC(=O)[C@@H](NC(=O)[C@@H](NC(=O)[C@@H]2C[C@@H](N)CN2C(=O)[C@@H](NC(=O)CN(CCN)CCN)C(C)C)[C@@H](C)CC)[C@@H](C)CC)C(=O)N[C@@H](CC(N)=O)C(=O)N[C@@H](CCCNC(=N)N)C(=O)N[C@@H](CCN)C(=O)N[C@@H]([C@@H](C)O)C(=O)N[C@H](CCN)C(=O)N[C@@H](CCCCN)C(=O)N1)C(=O)O [Example 40, Bis(2aminoethyl)Gly-Val-Pro((4R)NH2)-Ile-Ile-Tyr-Pen-Asn-Arg-Dab-Thr-DDab-Lys-Cys-Gln-Arg-Nle] (X3-V[Pro(4R-NH2)]IIY[Pen]NR[Dab]T[dDab]KCQR[Nle]-OH; disulfide 6-13) | 0.125 | 0.0625 | 0.25 | 0 |
| CC[C@H](C)[C@H](NC(=O)[C@@H]1C[C@@H](O)CN1C(=O)[C@@H](NC(=O)[C@@H]1C[C@@H](O)CN1C(=O)[C@@H](N)CCCCN)C(C)C)C(=O)N[C@H](C(=O)N[C@@H](Cc1ccc(O)cc1)C(=O)N[C@@H]1C(=O)N[C@@H](CC(N)=O)C(=O)N[C@@H](CCCNC(=N)N)C(=O)N[C@@H](CCN)C(=O)N[C@@H]([C@@H](C)O)C(=O)N[C@H](CCN)C(=O)N[C@@H](CCCCN)C(=O)N[C@H](C(=O)N[C@@H](CCN)C(=O)N[C@@H](CCCNC(=N)N)C(=O)N[C@@H](Cc2ccc(O)cc2)C(=O)O)CSSC1(C)C)[C@@H](C)O [Example 41, Lys-Hyp-Val-Hyp-Ile-Thr-Tyr-Pen-Asn-Arg-Dab-Thr-^DDab-Lys-Cys-Dab-Arg-Tyr] (HELM PEPTIDE1{K.[Hyp].V.[Hyp].I.T.Y.[Pen].N.R.[Dab].T.[NCC[C@@H](N[*:1])C(=O)[*:2]].K.C.[Dab].R.Y}$PEPTIDE1,PEPTIDE1,8:R3-15:R3$$$V2.0) | 0.125 | 0.0625 | 0.25 | 0 |
| CC[C@H](C)[C@H](NC(=O)[C@@H]1C[C@@H](N)CN1C(=O)[C@@H](NC(=O)[C@@H]1C[C@@H](O)CN1C(=O)[C@@H](N)CCCCN)C(C)C)C(=O)N[C@H](C(=O)N[C@@H](Cc1ccc(O)cc1)C(=O)N[C@@H]1C(=O)N[C@@H](CC(N)=O)C(=O)N[C@@H](CCCNC(=N)N)C(=O)N[C@@H](CCN)C(=O)N[C@@H]([C@@H](C)O)C(=O)N[C@H](CCN)C(=O)N[C@@H](CCCCN)C(=O)N[C@H](C(=O)N[C@@H](CCN)C(=O)N[C@@H](CCCNC(=N)N)C(=O)N[C@@H](Cc2ccc(O)cc2)C(=O)O)CSSC1(C)C)[C@@H](C)O [Example 43, Lys-Hyp-Val-Pro((4R)NH2)-Ile-Thr-Tyr-Pen-Asn-Arg-Dab-Thr-^DDab-Lys-Cys-Dab-Arg-Tyr] (HELM PEPTIDE1{K.[Hyp].V.[N[C@@H]1C[C@@H](C(=O)[*:2])N([*:1])C1].I.T.Y.[Pen].N.R.[Dab].T.[NCC[C@@H](N[*:1])C(=O)[*:2]].K.C.[Dab].R.Y}$PEPTIDE1,PEPTIDE1,8:R3-15:R3$$$V2.0) | 0.125 | 0.125 | 0.125 | 0 |
| CC[C@H](C)[C@H](NC(=O)CN(CCN)C(=O)[C@@H](NC(=O)[C@@H]1C[C@@H](O)CN1C(=O)[C@@H](N)CCCCN)C(C)C)C(=O)N[C@H](C(=O)N[C@@H](Cc1ccc(O)cc1)C(=O)N[C@@H]1C(=O)N[C@@H](CC(N)=O)C(=O)N[C@@H](CCCNC(=N)N)C(=O)N[C@@H](CCN)C(=O)N[C@@H]([C@@H](C)O)C(=O)N[C@H](CCN)C(=O)N[C@@H](CCCCN)C(=O)N[C@H](C(=O)N[C@@H](CCN)C(=O)N[C@@H](CCCNC(=N)N)C(=O)N[C@@H](Cc2ccc(O)cc2)C(=O)O)CSSC1(C)C)[C@@H](C)O [Example 47, Lys-Hyp-Val-Ndab-Ile-Thr-Tyr-Pen-Asn-Arg-Dab-Thr-^DDab-Lys-Cys-Dab-Arg-Tyr] (HELM PEPTIDE1{K.[Hyp].V.[NCCN(CC(=O)[*:2])[*:1]].I.T.Y.[Pen].N.R.[Dab].T.[NCC[C@@H](N[*:1])C(=O)[*:2]].K.C.[Dab].R.Y}$PEPTIDE1,PEPTIDE1,8:R3-15:R3$$$V2.0) | 0.0625 | ≤0.03125 | 0.25 | 0 |
| CC[C@H](C)[C@H](NC(=O)CN(CCN)C(=O)[C@@H](NC(=O)[C@@H]1C[C@@H](O)CN1C(=O)CNCCCN)C(C)C)C(=O)N[C@H](C(=O)N[C@@H](Cc1ccc(O)cc1)C(=O)N[C@@H]1C(=O)N[C@@H](CC(N)=O)C(=O)N[C@@H](CCCNC(=N)N)C(=O)N[C@@H](CCN)C(=O)N[C@@H]([C@@H](C)O)C(=O)N[C@H](CCN)C(=O)N[C@@H](CCCCN)C(=O)N[C@H](C(=O)N[C@@H](CCN)C(=O)N[C@@H](CCCNC(=N)N)C(=O)N[C@@H](Cc2ccc(O)cc2)C(=O)O)CSSC1(C)C)[C@@H](C)O [Example 48, Norn-Hyp-Val-Ndab-Ile-Thr-Tyr-Pen-Asn-Arg-Dab-Thr-^DDab-Lys-Cys-Dab-Arg-Tyr] (H-[Gly(N(CH2)3NH2)][Hyp]V[Gly(N-2-aminoethyl)]ITY[Pen]NR[Dab]T[dDab]KC[Dab]RY-OH; disulfide 8-15; N-terminus and C-terminus assumed) | 0.125 | 0.0625 | 0.25 | 0 |
